Legend:
GST-Ras^V12 = test: Binding of COS cell-expressed MEKK1 proteins to GST-Ras^V12 agarose; settings: COS cell lysates, immunoblot
Source text: COS cells were transiently transfected by the DEAE-dextran protocol as generally described in Example 3. Cos cells were transfected with: (1) p-MEKK1 containing a nucleic acid molecule encoding MEKK1 as described in Lange-Carter et al. (Science 260:315-319, […]); (2) p-MEKKNH2 containing a nucleic acid molecule that encodes a 858 base pair Pvull(682)-Ncol(1541) restriction digest fragment of the amino terminus of MEKK1 ligated into pCMV5; (3) p-MEKKCOOH containing a nucleic acid molecule that encodes a 1435 base pair Ncol(1541)-Sspl(2976) restriction digest fragment that includes the entire kinase domain of MEKK1 ligated into pCMV5; (4) pCMV5 without insert; or (5) p-C4Raf containing a nucleic acid molecule that encodes the amino terminus of Raf-1 ligated into pCMV5. COS cells expressing the various MEKK1 proteins were […] COS cells expressing the various MEKK1 proteins were lysed in EB (1% Triton X-100, 10 mM Tris HCl [pH 7.4], 5 mM EDTA, 50 mM NaCl, 50 mM NaF, 0.1% bovine serum albumin, 0.2 U/ml aprotinin, 1 mM phenylmethylsulfonyl fluoride and 2 mM Na3 VO4). The lysates were separated into two equal parts for separate binding reactions. Half of the lysate was incubated with GST agarose (1.5 μg) while half of the lysate was incubated with GST-Ras^V12 agarose (1.5 μg) (purchased from UBI) for 1 hr at 4° C. […]

MEKK2 = test: Cellular localization of MEKK2 in Swiss 3T3 cells, antibody staining; type: cell-based; settings: serum starved Swiss 3T3 cells, 10 minutes
Source text: (§1) Cells were fixed and stained with an antibody specifically recognizing either MEKK1 or MEKK2. Secondary FITC-conjugated anti-rabbit IgG antibody was used for staining.

Raf-B = Raf-B immunoprecipitate kinase assay from PC12 cells with kinase inactive MEK-1; type: cell-based; settings: EGF 30 ng/ml, serum starved PC12 cells
Raf [1] = test: Raf activation assay (immunoprecipitated Raf, kinase-inactive MEK-1) in NIH3T3 cells; type: cell-based
Experimental: (§2) Differential regulation of MEK in Rat 1a and NIH3T3 cells expressing gip2, v-src, v-ras, or v-raf led the present inventor to investigate the protein kinases that are putative regulators of MEK-1. Recently, it was shown that Raf-1 can phosphorylate and activate MEK. […] Cells were serum starved and challenged in the presence or absence of the appropriate growth factors, as described above. […] Cells were lysed by scraping in ice cold RIPA buffer (50 mM Tris, pH 7.2, 150 mM NaCl, 0.1% SDS, 0.5% sodium deoxycholate, 1.0% Triton X 100, 10 mM sodium pyrophosphate, 25 mM sodium glycerophosphate, 2 mM sodium vanadate, 2.1 μg/ml aprotinin) and were microfuged for 10 min to remove nuclei. The supernatants were normalized for protein content and precleared with protein A Sepharose prior to immunoprecipitation with rabbit antiserum to the C terminus of Raf-1 and protein A Sepharose for 2-3 h at 4° C. The beads were washed twice with ice cold RIPA and twice with PAN (10 mM Pipes, pH 7.0, 100 mM NaCl, 21 μg/ml aprotinin). A portion of the immunoprecipitate was diluted with SDS sample buffer and used for immunoblot analysis. […] Wild type recombinant MEK-1 was autophosphorylated in parallel as a marker. Reactions were terminated by the addition of 12.5 μl 5×SDS sample buffer, boiled for 5 minutes and subjected to SDS-PAGE and autoradiography.

MEKK1 = test: Cellular localization of MEKK1 in Swiss 3T3 cells, antibody staining; type: cell-based; settings: serum starved Swiss 3T3 cells, 10 minutes
Source text: as §1

98 kD PC12 cell MEKK = test: MEKK immunoprecipitate kinase assay from PC12 cells with kinase inactive MEK-1; type: cell-based; settings: serum starved PC12 cells
Experimental: Reactions were stopped by the addition of 2×SDS sample buffer (20 μl). The samples were boiled for 3 minutes and subjected to SDS-PAGE and autoradiography. Raf-B was immunoprecipitated from the same untreated and treated PC12 cell lysates as above with an antiserum to a COOH-terminal peptide of Raf-B (Santa Cruz Biotechnology, Inc.) and assayed similarly. Raf-1 was immunoprecipitated with an antiserum to the 12 COOH-terminal amino acids of Raf-1 (Santa Cruz Biotechnology, Inc.).
Data represent the relative magnitude of the response for each timepoint as quantitated by phosphorimager analysis of radioactive gels from a typical experiment.
Expression of N^17Ras was induced in PC12 clones stably transfected with the N^17Ras gene by the addition of dexamethasone to the starvation media. […] PC12 cell clones stably transfected with the N^17Ras gene are less responsive to EGF-mediated activation of MEKK activity than are wild type PC12 cells. […] MEKK activity in immunoprecipitates or column fractions was dissociable from that of EGF-stimulated c-Raf-1 and Raf-B activities.
To determine whether the growth factor-mediated activation of 98 kD PC12 cell MEKK was inhibited by PKA, forskolin was used to elevate intracellular cAMP and activate PKA. […] Raf-B activity was also assayed from the same cell lysates to test whether its regulation differed from that of MEKK. Raf-B was immunoprecipitated from the same cell lysates as described above and assayed for its ability to phosphorylate MEK-1 as described above.

Raf [2] = test: Raf activation assay (immunoprecipitated Raf, kinase-inactive MEK-1) in Rat 1a cells; type: cell-based
Experimental: as §2

GST-Cdc42 = GST-Cdc42 (Homo sapiens, UniProt P60953); test: Binding of MEKK4 to GST fusion protein on glutathione-Sepharose, Cdc42
Chain of GST-Cdc42 (P60953 whole entry, the tested form may be a part): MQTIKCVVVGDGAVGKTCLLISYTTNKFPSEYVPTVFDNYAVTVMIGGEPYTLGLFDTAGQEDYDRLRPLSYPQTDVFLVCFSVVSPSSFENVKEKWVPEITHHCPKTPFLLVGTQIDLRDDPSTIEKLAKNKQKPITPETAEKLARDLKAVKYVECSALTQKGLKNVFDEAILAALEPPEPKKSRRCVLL
Experimental: (§3) GST fusion proteins encoding Cdc42 or Rac loaded with either GTPγs or GDP were incubated with MEKK4 using previously described methods (Russell, M. et al. (1995) J. Biol. Chem. 270:11757-11760). The source of MEKK4 was either from a Cos cell transient transfection or a recombinant MEKK4 protein expressed in E. coli. The recombinant MEKK4 protein was truncated to express residues from 1261-1597 of the full length protein. A GST fusion protein of Ha-Ras was used as a control. The MEKK4 protein was incubated for 1 hr at 4° C. with either GST-Cdc42, GST-Rac or GST-Ras bound to glutathione-Sepharose beads. Each GST fusion protein had GTPγs or GDP bound to the Cdc42, Rac or Ras moiety of the fusion protein. Following the incubation the beads were washed extensively and the bound proteins removed in SDS-Laemmli buffer and resolved by SDS-PAGE using 10% acrylamide gels. The proteins were transferred to nitrocellulose and immunoblotted using a MEKK4 specific antibody recognizing the extreme COOH-terminus of MEKK4. […] The GDP bound forms of GST-Cdc42 and GST-Rac bound less than 10% of the MEKK4 bound in the presence of GTPγs.

GST-Rac = GST-Rac (Homo sapiens, UniProt P63000); test: Binding of MEKK4 to GST fusion protein on glutathione-Sepharose, Rac
Experimental: as §3

GST-Ras = GST-Ras (Homo sapiens, UniProt P01112); test: Binding of MEKK4 to GST fusion protein on glutathione-Sepharose, Ras; settings: GTPγS or GDP bound form
Chain of GST-Ras (P01112 whole entry, the tested form may be a part): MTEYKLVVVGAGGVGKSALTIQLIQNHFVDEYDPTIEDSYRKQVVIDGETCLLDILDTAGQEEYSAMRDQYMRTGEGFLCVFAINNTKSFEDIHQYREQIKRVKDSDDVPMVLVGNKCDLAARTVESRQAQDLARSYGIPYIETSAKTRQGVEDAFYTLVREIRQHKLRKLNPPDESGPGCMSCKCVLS
Experimental: as §3

[3] = system: Swiss 3T3 cells and REF52 cells; test: Beauvericin-induced apoptosis, anti-tubulin and propidium iodide staining; type: cell-based; settings: 50 μM, 6 hours at 37° C.
Experimental: A first group of transfected Swiss 3T3 cells and REF52 cells were treated with 50 μM beauvericin for 6 hours at 37° C. Beauvericin is a compound known to induce apoptosis in mammalian cells. A second group of cells were treated with a control buffer lacking beauvericin. The treated cells were then fixed in paraformaldehyde and permeabilized with saponin using protocols standard in the art. The permeabilized cells were then labelled by incubating the cells with a fluorescein-labelled anti-tubulin antibody (1:500; obtained from GIBCO, Gaithersburg, Md.) to detect cytoplasmic shrinkage or 10 μM propidium iodide (obtained from Sigma, St. Louis, Mo.) to stain DNA to detect nuclear condensation. The labelled cells were then viewed by differential fluorescent imaging using a Nikon Diaphot fluorescent microscope.

MEK = MEK activity in cell lysates from thrombin stimulated Rat 1a cells; type: cell-based
Source text: This Example Describes the Determination of Whether a Similar or Distinct MEK Activity is Involved in Activation of MAPK Though Gi Protein Coupled Receptors by Measuring MEK Activity in Cell Lysates from Thrombin Stimulated Rat 1a Cells

MAPK = test: Thrombin stimulation of MAPK; type: cell-based

C4Raf: amino terminus of Raf-1 encoded by p-C4Raf [reference compound]
binding to GST-Ras^V12 (in words) (GST-Ras^V12): bound to GST-Ras^V12(GTPγS) agarose

EGF: human EGF, epidermal growth factor
cellular localization of MEKK2 (MEKK2): did not effect the cellular localization of MEKK2 | time of peak Raf-B activity (Raf-B): 3 to 5 min | activation of Raf (Raf [1]): approximately 2.7 fold | cellular localization of MEKK1 (MEKK1): induced a dramatic translocation of MEKK1 to the plasma membrane | persistence of MEKK activation (98 kD PC12 cell MEKK; EGF 30 ng/ml): at least 30 minutes | MEKK activity after stimulation (in words) (98 kD PC12 cell MEKK; 5 minutes): increased MEKK activity | Raf catalyzed phosphorylation of MEK-1 (Raf [2]; Gip2 expressing Rat 1a cells): 1.8 fold | Raf phosphorylation of recombinant MEK-1 over basal (Raf [2]; Rat 1a cells): approximately 2.6 fold | Raf catalyzed phosphorylation of MEK-1 (Raf [2]; v-Src expressing Rat 1a cells): 1.4 fold

MEKK4: MEK kinase 4 protein, SEQ ID No. 12 / 14
binding to Cdc42 in the GTPγS form (GST-Cdc42; 1 hr at 4° C., immunoblot): specifically bound | MEKK4 bound by GDP form relative to GTPγs form (GST-Cdc42; GST-Cdc42): less than 10% | binding to Rac in the GTPγS form (GST-Rac; 1 hr at 4° C., immunoblot): specifically bound | MEKK4 bound by GDP form relative to GTPγs form (GST-Rac; GST-Rac): less than 10% | binding to Ras (GST-Ras): did not bind significantly

beauvericin
morphology characteristic of apoptosis [3]: cytoplasmic shrinkage (monitored by the anti-tubulin antibodies) and nuclear condensation

thrombin
magnitude of MEK activity relative to EGF stimulation (MEK): two to three-fold less | stimulation of MEK over basal (MEK): two to three-fold over basal | activation of Raf (in words) (Raf [1]): does not | time of maximal stimulation of MAPK (MAPK): 3 min | activation of Raf (in words) (Raf [2]; Rat 1a cells): did not measurably activate Raf

From US20080201790A1, “Method and product for regulating cell responsiveness to external signals” (priority 1993, published 2008)
